Results on 7 compounds are retold here after paper PMC3973950, “Synthesis of 5-arylidine amino-1,3,4-thiadiazol-2-[(N-substituted benzyol)]sulphonamides endowed with potent antioxidants and anticancer activity induces growth inhibition in HEK293, BT474 and NCI-H226 cells” (Medicinal Chemistry Research, 2013).

Structures are written as SMILES.

A short description of data set [1]: DPPH radical scavenging activity. Type of data set: biochemical. Particulars: Conc. ± SD; standard ascorbic acid; read-out: IC50 inhibitory concentration, DPPH radical. On the procedure: Compounds of SC series were evaluated for their in vitro free radical scavenging activities by 2,2-diphenyl-1-picrylhydrazyl (DPPH) assay method (Blois, [1958]; Shishoo et al., [1999]; Chhajed et al., [2007]). To determine the free radical scavenging activity, a method based on the reduction of a methanolic solution of the coloured DPPH radical was used. To a set of test tubes containing methanol (3 mL), DPPH reagent (2 mg/mL) (50 μL) was added. The initial absorbance was measured. To these test tubes, methanolic solution of different test solutions (1 mg/mL) were added (10–50 μL). Ascorbic acid (0.5 mg/mL) was also added in the concentration of 10, 20, 30, 40, 50 and 100 μL. After 20 min, absorbance was recorded at 516 nm. The experiment was performed in triplicate. The percentage reduction in absorbance was calculated from the initial and final absorbance of each solution (Dhar and Taploo, [1982]).
In general terms: Loss of DPPH colour is used to gauge radical scavenging.

Data set [2] can be described thus: Superoxide anion radical scavenging (NBT/NADH/PMS). Type of data set: biochemical. Particulars: Conc. ± SD; standard catechin; read-out: IC50 inhibitory concentration, Superoxide anion. On the procedure: Measurement of superoxide anion scavenging activity of the synthesized compound was taken based on the method described by Nishimiki et al. ([1972]) and slightly modified. […] The reaction mixture was incubated at 25 °C for 5 min, and the absorbance at 560 nm was measured against blank samples. Catechin was used as reference compound. All the experiments were performed in triplicate, and the results were averaged. The percentage of inhibition was determined by comparing the results of control and test samples. The IC50 (nM/mL) value are depicted in Table 1.

Data set [3] is described as follows: In vitro cytotoxicity by MTT assay, NCI-H226. The class given is cell-based. The note with it: human, NCI-H226 lung cancer cells, 0.015 μM, read-out: % Cytotoxicity (100 − % cell survival) of NCI-H226 cell line. A digest of the protocol: (§1)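 First, trypsinized cells went into wells at roughly 10,000 per well for 24 h. Next, medium was replaced with test compounds for 72 h at 37 °C. Finally, MTT was added for 4 h and the propanol-solubilized formazan read at 490 nm.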
(Formazan colour is commonly taken as a measure of viable cells.)

For data set [4], the system named is NCI-H226 (lung cancer cell line). Description: In vitro cytotoxicity by MTT assay, NCI-H226. Type of data set: cell-based. The note with it: Homo sapiens, 72 h, read-out: % Cytotoxicity (100 − % cell survival) of NCI-H226 cell line; for cytotoxicity at 0.005 µM: NCI-H226, 0.005 μM; for cytotoxicity at 0.045 µM: NCI-H226, 0.045 μM; for cytotoxicity at 0.13 µM: NCI-H226, 0.13 μM; for cytotoxicity at 0.41 µM: NCI-H226, 0.41 μM; for cytotoxicity at 1.23 µM: NCI-H226, 1.23 μM; for cytotoxicity at 3.7 µM: NCI-H226, 3.7 μM; for cytotoxicity at 11.11 µM: NCI-H226, 11.11 μM; for cytotoxicity at 33.33 µM: NCI-H226, 33.33 μM; for cytotoxicity at 100 µM: NCI-H226, 100 μM. A digest of the protocol: as §1

Data set [5] in a line: Total antioxidant activity (ABTS radical cation scavenging). Type of data set: biochemical. Particulars: Conc. ± SD; three independent experiments in duplicate; standard trolox; read-out: IC50 inhibitory concentration, ABTS^+ radical. On the procedure: The ability of the test sample to scavenge 2,2′-azinobis-(3-ethylbenzothiazoline-6-sulphonic acid) (ABTS^·+) radical cation was compared with 6-hydroxy-2,5,7,8-tetramethylchroman-2-carboxylic acid (trolox) standard (Chang et al., [2007]; Erel, [2004]; Re et al., [1999]). The ABTS^·+ radical cation was pregenerated by mixing ABTS stock solution (7 mM) with potassium persulphate (2.45 mM) (final concentration) and incubating for 12–16 h in the dark at room temperature until the reaction was complete and the absorbance was stable. The absorbance of the ABTS^·+ solution was equilibrated to 0.70 (±0.02) by diluting with water at room temperature, then 1 mL of solution was mixed with 10 μL of the test sample (0.05–10 mg/mL), and the absorbance was measured at 734 nm after 6 min. All experiments were repeated three times. The percentage inhibition of absorbance was calculated and plotted as a function of the concentration of standard and sample to determine the trolox equivalent antioxidant concentration (TEAC). To calculate the TEAC, the gradient of the plot for the sample was divided by the gradient of the plot for trolox. The IC50 inhibitory concentration (nM/mL) values of tested compounds are depicted in Table 1. The ABTS^·+ radical scavenging activity of the samples was expressed as S%=[(Acontrol-Asample)/Acontrol]×100 where A control is the absorbance of the blank control (ABTS^·+ solution without test sample), and A sample is the absorbance of the test sample.

Data set [6] in a line: Nitric oxide radical scavenging (sodium nitroprusside, Griess reaction). The class given is biochemical. Particulars: Conc. ± SD; standard curcumin; read-out: IC50 inhibitory concentration, Nitric oxide radical. On the procedure:
Nitric oxide generated from sodium nitroprusside in aqueous solution at physiological pH interacts with oxygen to produce nitrite ions, which were measured by the Griess reaction (Marcocci et al., [1994]; Green et al., [1982]). Scavenger of nitric oxide competes with oxygen leading to reduced production of nitric oxide (Mondal et al., [2006]). The reaction mixture (3 mL) containing sodium nitroprusside (10 mM) in phosphate-buffered saline (PBS) and the compounds in different concentrations (10, 20, 30, 40, 50 and 100 μg) were incubated at 25 °C for 150 min. At every 30-min interval, the incubated sample (0.5 mL) was removed and Griess reagent (1 % sulphanilamide, 0.1 % naphthylethylene diamine dihydrochloride in 2 % H3PO4) (0.5 mL) was added. The absorbance of the chromophore formed was measured at 546 nm. All the analyses were performed in triplicate, and the results were averaged. The percentage inhibition of nitric oxide generated was measured by comparing the absorbance values of control and test.
Background: The Griess reaction detects nitrite, a stable product of nitric oxide.

As usually defined, the melting point is the temperature of the solid-liquid transition. On to `COc1ccc(C=Nc2nnc(S(=O)(=O)NC(=O)c3ccccc3)s2)cc1` [Compound 9d, N-({5-[(4-Methoxybenzylidene)amino]-1,3,4-thiadiazol-2-yl}sulfonyl)benzamide], for which the melting point was 215 to 217 °C. Besides, the IC50 in data set [1] stood at 63.6 ± 8.35 µM. Besides, the IC50 in data set [2] turned out to be 74.5 ± 8.3 µM. Besides, the cytotoxicity at 72 h, 0.015 µM in data set [3] was determined as 36.3%. For the same compound, in data set [4], the cytotoxicity at 0.005 µM worked out at 35.6%, the cytotoxicity at 0.045 µM came out at 37.5%, the cytotoxicity at 0.13 µM was found to be 38.3% and the cytotoxicity at 0.41 µM turned out to be 40.6%. In data set [4], the cytotoxicity at 1.23 µM was 41.2%, the cytotoxicity at 3.7 µM turned out to be 43.1%, the cytotoxicity at 11.11 µM amounted to 47.8% and the cytotoxicity at 33.33 µM is 48.2%. For the same compound, in data set [4], the cytotoxicity at 100 µM was found to be 53%. Besides, the IC50 in data set [5] came to 55.6 ± 6.98 µM. Besides, the IC50 in data set [6] stood at 53 ± 6.74 µM.

`O=C(NS(=O)(=O)c1nnc(N=Cc2ccccc2)s1)c1ccccc1` [Compound 9a, N-{[5-(Benzylidenamino)-1,3,4-thiadiazol-2-yl]sulphonyl} benzamide] registered a melting point of 185 to 187 °C. Further, in data set [1], the IC50 was 134 ± 12.9 µM. Further, in data set [2], the IC50 was 152 ± 14.4 µM. In data set [3], the cytotoxicity at 72 h, 0.015 µM amounted to 34.8%. Moreover, in data set [4], the cytotoxicity at 0.005 µM was 33.3%, the cytotoxicity at 0.045 µM came to 35.3%, the cytotoxicity at 0.13 µM was 36.1% and the cytotoxicity at 0.41 µM is 37%. Moreover, in data set [4], the cytotoxicity at 1.23 µM was 37.9%, the cytotoxicity at 3.7 µM came to 38.1%, the cytotoxicity at 11.11 µM stood at 39.1% and the cytotoxicity at 33.33 µM was determined as 41.1%. For the same compound, the cytotoxicity at 100 µM in data set [4] is 42.4%. In addition, the IC50 in data set [5] came to 73.3 ± 7.05 µM. For the same compound, the IC50 in data set [6] came to 104 ± 7.5 µM.

As to `COc1ccccc1C=Nc1nnc(S(=O)(=O)NC(=O)c2ccccc2)s1` [Compound 9c, N-({5-[(2-Methoxybenzylidene)amino]-1,3,4-thiadiazol-2-yl}sulfonyl)benzamide], the IC50 in data set [1] is 41.3 ± 4.23 µM. In addition, the IC50 in data set [2] was found to be 128 ± 21.7 µM. Further, in data set [3], the cytotoxicity at 72 h, 0.015 µM amounted to 33.2%. In data set [4], the cytotoxicity at 0.005 µM is 31.5%, the cytotoxicity at 0.045 µM was 34.1%, the cytotoxicity at 0.13 µM worked out at 35.1% and the cytotoxicity at 0.41 µM came to 35.9%. Further, in data set [4], the cytotoxicity at 1.23 µM was determined as 36.1%, the cytotoxicity at 3.7 µM was determined as 37.7%, the cytotoxicity at 11.11 µM turned out to be 38.2% and the cytotoxicity at 33.33 µM came out at 40.3%. Also, in data set [4], the cytotoxicity at 100 µM stood at 43.5%. Also, the IC50 in data set [5] is 196 ± 16.6 µM. Moreover, in data set [6], the IC50 came to 81.9 ± 10.4 µM.

For `CN(C)c1ccc(C=Nc2nnc(S(=O)(=O)NC(=O)c3ccccc3)s2)cc1` [Compound 9h, N-[(5-{[4-(Dimethylamino)benzylidene]amino}-1,3,4-thiadiazol-2-yl)sulfonyl]benzamide], the melting point fell in the range of 236 to 238 °C. Also, the cytotoxicity at 72 h, 0.015 µM in data set [3] stood at 35%. Besides, in data set [4], the cytotoxicity at 0.005 µM came to 32.9%, the cytotoxicity at 0.045 µM was 35.4%, the cytotoxicity at 0.13 µM stood at 36.3% and the cytotoxicity at 0.41 µM was 36.4%. For the same compound, in data set [4], the cytotoxicity at 1.23 µM was 37.2%, the cytotoxicity at 3.7 µM worked out at 37.5%, the cytotoxicity at 11.11 µM was 37.9% and the cytotoxicity at 33.33 µM amounted to 39.2%. Besides, in data set [4], the cytotoxicity at 100 µM turned out to be 40%.

With `COc1cc(C=Nc2nnc(S(=O)(=O)NC(=O)c3ccccc3)s2)ccc1O` [Compound 9g, N-({5-[(4-Hydroxy-3-methoxybenzylidene)amino]-1,3,4-thiadiazol-2-yl}sulfonyl)benzamide], the melting point fell in the range of 252 to 254 °C. Also, the cytotoxicity at 72 h, 0.015 µM in data set [3] was found to be 33.2%. Moreover, in data set [4], the cytotoxicity at 0.005 µM amounted to 32.7%, the cytotoxicity at 0.045 µM was found to be 34.1%, the cytotoxicity at 0.13 µM was 35.1% and the cytotoxicity at 0.41 µM stood at 36.3%. In data set [4], the cytotoxicity at 1.23 µM was found to be 37.5%, the cytotoxicity at 3.7 µM was 38.6%, the cytotoxicity at 11.11 µM came to 39.2% and the cytotoxicity at 33.33 µM turned out to be 39.8%. In data set [4], the cytotoxicity at 100 µM amounted to 42.5%.

`O=C(NS(=O)(=O)c1nnc(N=Cc2ccc(O)cc2)s1)c1ccccc1` [Compound 9e, N-({5-[(4-Hydroxybenzylidene)amino]-1,3,4-thiadiazol-2-yl}sulfonyl)benzamide] had a melting point of 178 to 180 °C. The IC50 in data set [1] came to 107 ± 18.1 µM. In addition, the IC50 in data set [2] stood at 136 ± 22.5 µM. Also, the cytotoxicity at 72 h, 0.015 µM in data set [3] worked out at 40.3%. Further, in data set [4], the cytotoxicity at 0.005 µM was 39.1%, the cytotoxicity at 0.045 µM came out at 41.9%, the cytotoxicity at 0.13 µM came out at 42.5% and the cytotoxicity at 0.41 µM is 43.4%. Also, in data set [4], the cytotoxicity at 1.23 µM was 45.8%, the cytotoxicity at 3.7 µM is 47.6%, the cytotoxicity at 11.11 µM came out at 48.2% and the cytotoxicity at 33.33 µM turned out to be 49.3%. In data set [4], the cytotoxicity at 100 µM is 51.4%. The IC50 in data set [5] amounted to 47.9 ± 9.9 µM. The IC50 in data set [6] came to 155 ± 17.6 µM.

For `O=C(NS(=O)(=O)c1nnc(N=Cc2ccccc2O)s1)c1ccccc1` [Compound 9f, N-({5-[(2-Hydroxybenzylidene)amino]-1,3,4-thiadiazol-2-yl}sulfonyl)benzamide], the melting point was 220 to 222 °C. Further, in data set [1], the IC50 was determined as 80.6 ± 11.4 µM. Moreover, the IC50 in data set [2] amounted to 36.7 ± 14.4 µM. In data set [3], the cytotoxicity at 72 h, 0.015 µM is 31.2%. Further, in data set [4], the cytotoxicity at 0.005 µM stood at 30.3%, the cytotoxicity at 0.045 µM turned out to be 32.4%, the cytotoxicity at 0.13 µM stood at 33.4% and the cytotoxicity at 0.41 µM was found to be 35%. In data set [4], the cytotoxicity at 1.23 µM came to 35.7%, the cytotoxicity at 3.7 µM was 36.9%, the cytotoxicity at 11.11 µM came out at 37.1% and the cytotoxicity at 33.33 µM turned out to be 38.7%. Moreover, the cytotoxicity at 100 µM in data set [4] was determined as 40.4%. The IC50 in data set [5] was determined as 207 ± 17.4 µM. Moreover, in data set [6], the IC50 stood at 38 ± 11.8 µM.
